The subject of one data set is photoreceptors / retina. The conditions noted are these: cited from earlier work.
The target in the next data set is T1, human recombinant PKM2 (Homo sapiens, UniProt P14618).
T1 construct: purchased Sigma SAE0021
The data set is described as follows: Pyruvate kinase activity enzyme assay, recombinant enzyme (LDH-coupled, NADH depletion at 340 nm). In kind it is biochemical. The conditions noted are these: normalized to DMSO-treated PKM2 activity; for EC50: recombinant PKM2 20 nM; for Emax: recombinant PKM2, read-out: Max Activation. The procedure: Pyruvate Kinase Activity Enzyme Assay. Recombinant Enzyme. A continuous, enzyme-coupled assay, which uses lactate dehydrogenase (LDH) and measures the depletion of NADH via absorbance at 340 nm was utilized to determine the pyruvate kinase activity. For AC50 measurements (concentration of activator necessary to achieve half-maximal activation) with ML-265, assays were performed in 96-well format using 200 μL/well assay volume with final concentrations of 20 nM human recombinant PKM2 (Sigma, SAE0021), differing concentrations of ML-265, 0.5 mM PEP, 1 mM ADP, 0.2 mM NADH, and 8 U of lactate dehydrogenase (LDH) in an assay buffer of 50 mM Tris-HCl (pH 7.4), 100 mM KCl, and 5 mM MgCl2. The decrease in absorbance at 340 nm was monitored using a SPECTROstar Omega plate reader (BMG LABTECH Inc., Cary, NC, USA). Initial velocities were calculated with the MARS software. Data were normalized to DMSO (dimethyl sulfoxide)-treated PKM2 activity.

Data set [1] addresses T2, pyruvate kinase activity, 661W cell line (Mus musculus, UniProt P52480).
T2 construct: endogenous in cells; host or cells: 661W cell line
In words: Pyruvate kinase activity in 661W cell lysates after 2 hours treatment. In kind it is cell-based. The conditions noted are these: 661W cells, 2 hours incubation, activity normalized to total protein; for Emax: read-out: Max Activation (cell). The procedure:
Cell culture. For 661W cell line experiments, media was replaced prior to the start of treatment with DMSO or ML-265. Cells were incubated with DMSO or different concentrations of ML-265 for 2 hours. Cells were lysed and homogenized in RIPA Lysis and Extraction Buffer (Catalog number: 89900, Life Technologies Corporation, Grand Island, NY) with protease inhibitors (Complete-Mini, Roche Diagnostics, Indianapolis, IN) and cellular debris was removed by centrifugation at 10,000 rpm for 10 minutes. Ten microliters of the supernatant was used to assess pyruvate kinase activity, and the activity was normalized to total protein content as previously described.

Molecules are shown by their SMILES.

T2 sequence (P52480 whole entry): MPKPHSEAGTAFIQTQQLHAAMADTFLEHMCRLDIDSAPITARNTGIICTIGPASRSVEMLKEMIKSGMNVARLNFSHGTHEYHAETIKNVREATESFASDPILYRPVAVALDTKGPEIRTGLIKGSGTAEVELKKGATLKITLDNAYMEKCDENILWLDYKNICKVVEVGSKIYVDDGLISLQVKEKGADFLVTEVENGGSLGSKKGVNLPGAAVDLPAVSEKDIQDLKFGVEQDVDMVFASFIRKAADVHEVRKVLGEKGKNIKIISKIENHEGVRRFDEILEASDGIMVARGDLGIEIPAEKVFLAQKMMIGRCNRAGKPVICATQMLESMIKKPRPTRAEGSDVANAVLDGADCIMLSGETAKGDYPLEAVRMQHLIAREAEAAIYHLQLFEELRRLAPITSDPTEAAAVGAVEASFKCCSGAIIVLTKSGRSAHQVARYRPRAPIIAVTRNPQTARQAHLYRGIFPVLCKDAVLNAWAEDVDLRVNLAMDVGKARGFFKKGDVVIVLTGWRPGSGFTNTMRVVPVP
T1 sequence (P14618 whole entry): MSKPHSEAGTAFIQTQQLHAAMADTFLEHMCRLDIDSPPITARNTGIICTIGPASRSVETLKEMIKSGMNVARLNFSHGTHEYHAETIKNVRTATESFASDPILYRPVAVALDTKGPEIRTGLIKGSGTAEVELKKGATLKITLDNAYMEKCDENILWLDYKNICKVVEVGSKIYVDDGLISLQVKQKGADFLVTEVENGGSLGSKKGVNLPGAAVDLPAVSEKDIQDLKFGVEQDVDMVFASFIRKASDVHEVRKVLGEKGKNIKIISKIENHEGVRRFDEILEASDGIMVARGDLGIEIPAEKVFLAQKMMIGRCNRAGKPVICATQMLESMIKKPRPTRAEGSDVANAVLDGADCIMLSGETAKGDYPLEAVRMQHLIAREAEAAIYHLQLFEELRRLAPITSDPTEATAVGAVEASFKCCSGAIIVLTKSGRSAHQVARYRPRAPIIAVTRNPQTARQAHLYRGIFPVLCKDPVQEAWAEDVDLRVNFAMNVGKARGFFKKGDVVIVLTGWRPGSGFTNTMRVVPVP

On to `Cn1c2cc([S+](C)[O-])sc2c2cnn(Cc3cccc(N)c3)c(=O)c21` (stereo not shown) [ML-265], for which, in the data set with photoreceptors / retina (long-term), the “toxic effects on the retina” value is “without any toxic effects on the retina long-term”. The photoreceptor apoptosis result in the data set with photoreceptors / retina (small molecule activation of PKM2, models of outer retinal stress) was “circumvents photoreceptor apoptosis”.
For the molecule `Cn1c2cc(Oc3cccc(O)n3)ccc2c2cnn(Cc3ccccc3F)c(=O)c21` [Example 72, 3-(2-fluorobenzyl)-7-((6-hydroxypyridin-2-yl)oxy)-5-methyl-3,5-dihydro-4H-pyridazino [4,5-b]indol-4-one], the figures for the EC50 (on human recombinant PKM2; in data set [1]) were 55 nM and 72 nM, respectively. Also, the values for the Emax (on human recombinant PKM2; in data set [1]) were 206% and 222%, respectively.
In the same order, the values of `Cc1cccc(Cn2ncc3c4ccc(Oc5ncnc6[nH]ncc56)cc4n(C)c3c2=O)n1` [Example 65, 7-((1H-pyrazolo[3,4-d]pyrimidin-4-yl)oxy)-5-methyl-3-((6-methylpyridin-2-yl)methyl)-3,5-dihydro-4H-pyridazino[4,5-b]indol-4-one] are 43 nM, 115 nM, 191% and 262%.
Turning to `COc1ccc2c3cnn(Cc4cccc(N)c4)c(=O)c3n(C)c2c1` [Example 8, 3-(3-Aminobenzyl)-7-methoxy-5-methyl-3,5-dihydro-4H-pyridazino[4,5-b]indol-4-one], at human recombinant PKM2, the EC50 – broadly, the concentration that produces a half-maximal response – is 117 nM and the Emax is 271%. Moreover, in data set [1], the EC50 was 25 nM and the Emax was determined as 324%.
In the same order, the values of `Cc1cccc(Cn2ncc3c4ccc(Oc5ccc6[nH]ncc6n5)cc4n(C)c3c2=O)n1` [Example 62, 7-((1H-pyrazolo[4,3-b]pyridin-5-yl)oxy)-5-methyl-3-((6-methylpyridin-2-yl)methyl)-3,5-dihydro-4H-pyridazino[4,5-b]indol-4-one] are 82 nM, 221%, 134 nM and 376%.
Regarding `Cc1cccc(Cn2ncc3c4ccc(Oc5cccc(Cl)n5)cc4n(C)c3c2=O)n1` [Example 67, 7-((6-chloropyridin-2-yl)oxy)-5-methyl-3-((6-methylpyridin-2-yl)methyl)-3,5-dihydro-4H-pyridazino[4,5-b]indol-4-one], on human recombinant PKM2, the 50% effective concentration (EC50) was determined as 49 nM and the Emax was 277%. For the same molecule, in data set [1], the concentration giving a half-maximal response (EC50) was determined as 147 nM and the Emax was 290%.
